From patent publication US9492470B2, “Use of HMGA-targeted phosphorothioate DNA aptamers to suppress carcinogenic activity and increase sensitivity to chemotherapy agents in human cancer cells” (MIAMI UNIVERSITY, priority 2012, dated 2016)
Like-named read-outs stand apart in the source and are kept apart here. In the oligonucleotide strings, read from the 5' end, every base follows the letter of its sugar. An asterisk marks phosphorothioate; unmarked linkages are phosphodiester. Other units and linkages are bracketed, terminal groups are in braces. A string of capitals states the bases alone. d = 2'-deoxy (DNA)

Assays:
AsPC-1 cells [1] = conditions: for cell death: 96 h, compared to non-transfected cells; for cells dead compared to UT: AsPC-1, 0.1 ug sDNA, versus untransfected (UT) cells; for Fold change in numbers of viable cells between TC and sDNA transfected cells (in parentheses) / Fold change in numbers of viable cells between UT and transfected cells: 96 h after transfection
Experimental: AsPC-1 cells were grown in Roswell Park Memorial Institute medium supplemented with 10% FBS, and 1% penicillin-streptomycin.
Transfections using sDNA at concentrations of 0.1 and 0.25 μg per well were conducted with 5×10^4 and 1×10^5 Miapaca-2 and AsPC-1 cells, respectively, in 24-well plates and all data were collected in quadruplicate. Miapaca-2 and AsPC-1 cells were transfected with sDNA using Lipofectamine 2000 (Invitrogen,™ Life Technologies Corporation, Carlsbad, Calif.) according to the manufacturer's protocol.
Briefly, AsPC-1 cells grown in 10% FBS containing RPIM medium were trypsinized using a trypsin-EDTA solution commercially available from the Sigma-Aldrich, and used to seed fresh media in a 24-well plate with 10^5 cells per well.
After 48 hours, the cells were transfected with the selected sDNA using Lipofectamine 2000 (Invitrogen,™ Life Technologies Corporation, Carlsbad, Calif.) according to the manufacturer's protocol. […] The cells were then fixed with 4% paraformaldehyde in PBS for 20 minutes and stained in 0.1% crystal violet stain (Sigma-Aldrich) for 30 minutes. The cells were washed under running tap water, air dried, and extracted with 0.2% Triton™ X-100 for 30 minutes. […] The absorbance of the Triton X-100 was measured at 570 nm using a HTS microplate reader. All results were analyzed for statistical significance using a student's unpaired t-test.

AsPC-1 cells [2] = experiment: Cell growth with gemcitabine treatment after sDNA transfection, AsPC-1; format: cell-based, Human; conditions: for Fold change in numbers of viable cells normalized relative to TC: AsPC-1, 0.1 ug sDNA, 96 hours
Experimental: (§1) Cells were fixed after 96 hours and numbers of viable cells counted by measuring the absorbance at 570 nm.
(§2) Cells were transfected with 0.1 μg of TC-sDNA, Mix-sDNA, CG-sDNA, and AT-sDNA.

AsPC-1 cells [3] = experiment: as above; format: cell-based, Human; conditions: for cells died: AsPC-1, 0.25 μg AT-sDNA
[4] = tested on: HMGA1 expression levels in AsPC-1 cells; experiment: Western blot of HMGA1 expression levels in AsPC-1 nuclear extracts; format: cell-based, Human; conditions: AsPC-1, 0.5 μg sDNA in six well plates, 48 hours
Experimental: Cytoplasmic and nuclear protein extracts were prepared from pancreatic cancer cells using NE-PER extraction kit (Thermo Scientific, Rockford, Ill.). Protein concentrations were determined using a bicinchoninic acid assay with bovine serum albumin as a standard. Nuclear proteins that contained 25 or 15 μg total protein were separated by SDS-PAGE with a 4%-20% Criterion gradient gel (Bio-Rad Laboratories, Inc., Hercules, Calif.). The proteins were transferred to immuno-blot PVDF membrane (0.2 μm) (Bio-Rad Laboratories, Inc., Hercules, Calif.) and blocked in 5% dry milk in PBS supplemented with 0.2% Tween 20 (PBST). The PVDF membranes were then probed with 1:1000 dilution of rabbit anti-HMGA1 antibody (Santa Cruz Biotechnology Inc, Santa Cruz, Calif.) and 1:100 dilution of rabbit anti-HMGA2 antibody (Abcam plc, Cambridge, Mass.), in 3% BSA in PBST at 4° C. overnight. After three washes with PBST, the membrane was blotted with secondary antibody, ant-rabbit IgG-HRP (cell signaling) 1:5000 dilution in 1% dry milk in PBST at room temperature for 1 hour. An enhanced chemiluminescence detection (ECL, GE Healthcare Life Sciences, Piscataway, N.J.) system was used to detect target proteins. To ensure equal loading of the proteins between groups, membranes were re-probed with anti-TATA binding protein antibody (Abcam plc, Cambridge, Mass.). […] The control was nuclear extract from untreated cells. Triplicates of each sample were run on the gel and analyzed with the Alpha Imager. The relative HMGA1 densities were obtained by dividing HMGA 1 density by TBP density. […] TATA binding protein (TBP) was used as a loading control. […] HMGA1 expression levels were examined after transfection with CG-sDNA or AT-sDNA to determine if the transfection procedure affected HMGA1 expression levels. The AT-sDNA used for transfection contained an 18 adenine/thymine stretch enabling HMGA1 to bind the DNA with all three AT-hooks. As a negative control, a non-HMGA1-targeted sDNA containing an equal length of DNA but with no AT-stretches, i.e. CG-sDNA, was used. […]

Miapaca-2 cells [5] = experiment: Cell viability (crystal violet) after sDNA transfection, Miapaca-2; format: cell-based, Human; conditions: for cells dead compared to TC: versus transfection control (TC) cells; for cells dead compared to UT: Miapaca-2, 0.1 ug sDNA, versus untransfected (UT) cells; for Fold change in numbers of viable cells between TC and sDNA transfected cells (in parentheses) / Fold change in numbers of viable cells between UT and transfected cells: 96 h after transfection
Experimental: The absorbance was measured at 570 nm in quadruplicate. All data from control cells were combined and averaged.

Miapaca-2 cells [6] = experiment: Cell growth with gemcitabine treatment after sDNA transfection, Miapaca-2; format: cell-based, Human; conditions: 96 hours; for Fold change in numbers of viable cells normalized relative to TC: Miapaca-2, 0.1 ug sDNA
Experimental: as §1, §2

Miapaca-2 cells [7] = experiment: as above; format: cell-based, Human; conditions: for Fold change in numbers of viable cells normalized relative to TC: 96 hours

“AT-sDNA: AT-rich phosphorothioate DNA, 5′-G*G*G*A*A*A*A*A*A*T*T*T*T*T*T*A*A*A*A*A*A*C*C*C-3′ (SEQ ID NO: 1), sulfur substitution at every position (DNA dG*dG*dG*dA*dA*dA*dA*dA*dA*dT*dT*dT*dT*dT*dT*dA*dA*dA*dA*dA*dA*dC*dC*dC)” was tested, and the cell death (AsPC-1 cells [1]; AsPC-1, 0.1 μg sDNA per well) was 33%, the “cells dead compared to TC” value (AsPC-1 cells [1]; AsPC-1, 0.1 μg sDNA, 48 hrs, versus transfection control (TC) cells) was 22.3% and the “cells dead compared to UT” value (AsPC-1 cells [1]; 48 hrs) was 42.0%. For the same substance, the “Fold change in numbers of viable cells between TC and sDNA transfected cells (in parentheses)” value (from here on “Fold change in numbers … (in parentheses)”) (AsPC-1 cells [1]; AsPC-1, 0.1 μg sDNA) was −1.44 fold, the “Fold change in numbers of viable cells between UT and transfected cells” value (AsPC-1 cells [1]; AsPC-1, 0.1 μg sDNA) was −1.57 fold and the “cells dead compared to TC” value (AsPC-1 cells [1]; AsPC-1, 0.1 μg sDNA, 96 hrs, versus transfection control (TC) cells) was 30.7%. For the same substance, the “cells dead compared to UT” value (AsPC-1 cells [1]; 96 hrs) was 36.1%, the cell death (AsPC-1 cells [1]; AsPC-1, 0.25 μg sDNA per well) was 44% and the “Fold change in numbers … (in parentheses)” value (AsPC-1 cells [1]; AsPC-1, 0.25 μg sDNA) was −1.65 fold. For the same substance, the “Fold change in numbers of viable cells between UT and transfected cells” value (AsPC-1 cells [1]; AsPC-1, 0.25 μg sDNA) was −1.79 fold, the “cell death compared to TC” value (AsPC-1 cells [1]; AsPC-1, 0.25 μg sDNA, 96 hours, versus TC cells) was 39.4% and the cell death (AsPC-1 cells [1]; AsPC-1, 1.0 μg sDNA per well) was 57%. For the same substance, the “cells dead compared to TC” value (AsPC-1 cells [1]; AsPC-1, 1.0 μg sDNA, 96 hours, versus TC cells) was 53.6%, the cells dying (AsPC-1 cells [2]; AsPC-1, 0.1 μg AT-sDNA, 100 nM gemcitabine) was 29.4% and the “Fold change in numbers of viable cells normalized relative to TC” value (AsPC-1 cells [2]; Gemcitabine 0 nM) was −1.44 fold. For the same substance, the “Fold change in numbers of viable cells normalized relative to TC” value (AsPC-1 cells [2]; Gemcitabine 1 nM) was −1.58 fold, the “Fold change in numbers of viable cells normalized relative to TC” value (AsPC-1 cells [2]; Gemcitabine 10 nM) was −1.71 fold and the “Fold change in numbers of viable cells normalized relative to TC” value (AsPC-1 cells [2]; Gemcitabine 30 nM) was −1.86 fold. The “Fold change in numbers of viable cells normalized relative to TC” value (AsPC-1 cells [2]; Gemcitabine 100 nM) was −2.04 fold, the “Fold change in numbers of viable cells normalized relative to TC” value (AsPC-1 cells [2]; Gemcitabine 1000 nM) was −2.33 fold and the cell death (AsPC-1 cells [3]; AsPC-1, 0.025 μg AT-sDNA, 1000 nM gemcitabine) was 31%. The cells dying (AsPC-1 cells [3]; AsPC-1, 0.1 μg AT-sDNA, 1 nM gemcitabine) was 9.0%, the cells died (AsPC-1 cells [3]; 1 nM gemcitabine) was 14.9% and the cells died (AsPC-1 cells [3]; 100 nM gemcitabine) was 41.7%. The “overall drop in the number of viable cells after gemcitabine treatment” value (AsPC-1 cells [3]; AsPC-1, AT-sDNA transfection) was 2-4 fold, the “change in HMGA1 expression levels after sDNA transfection” value [4] was “no changes” and the “cells dead compared to TC” value (Miapaca-2 cells [5]; Miapaca-2, 0.1 μg sDNA, 48 hrs) was 17.2%. The “cells dead compared to UT” value (Miapaca-2 cells [5]; 48 hrs) was 48.4%, the “Fold change in numbers … (in parentheses)” value (Miapaca-2 cells [5]; Miapaca-2, 0.1 μg sDNA) was −1.52 fold and the “Fold change in numbers of viable cells between UT and transfected cells” value (Miapaca-2 cells [5]; Miapaca-2, 0.1 μg sDNA) was −2.36 fold. The “cells dead compared to TC” value (Miapaca-2 cells [5]; Miapaca-2, 0.1 μg sDNA, 96 hrs) was 34.1%, the “cells dead compared to UT” value (Miapaca-2 cells [5]; 96 hrs) was 58.9% and the “Fold change in numbers … (in parentheses)” value (Miapaca-2 cells [5]; Miapaca-2, 0.25 μg sDNA) was −3.68 fold. For the same substance, the “Fold change in numbers of viable cells between UT and transfected cells” value (Miapaca-2 cells [5]; Miapaca-2, 0.25 μg sDNA) was −6.07 fold, the “cells dead / change in cell viability” value (Miapaca-2 cells [6]; Miapaca-2, 0.1 μg sDNA, 1 nM gemcitabine) was 33.6% and the cells surviving (Miapaca-2 cells [6]; Miapaca-2, 0.1 μg sDNA, 10 nM gemcitabine, normalized to 0 nM gemcitabine) was 51.2%. The “Fold change in numbers of viable cells normalized relative to TC” value (Miapaca-2 cells [6]; Gemcitabine 0 nM) was −1.52 fold, the “Fold change in numbers of viable cells normalized relative to TC” value (Miapaca-2 cells [6]; Gemcitabine 10 nM) was −1.79 fold and the “Fold change in numbers of viable cells normalized relative to TC” value (Miapaca-2 cells [6]; Gemcitabine 30 nM) was −7.07 fold. The “Fold change in numbers of viable cells normalized relative to TC” value (Miapaca-2 cells [6]; Gemcitabine 100 nM) was −9.58 fold, the “Fold change in numbers of viable cells normalized relative to TC” value (Miapaca-2 cells [6]; Gemcitabine 1000 nM) was −6.82 fold and the “Fold change in numbers of viable cells normalized relative to TC” value (Miapaca-2 cells [7]; Miapaca-2, 0.1 ug sDNA, Gemcitabine 1 nM) was −1.38 fold. For the same substance, the “Fold change in numbers of viable cells normalized relative to TC” value (Miapaca-2 cells [7]; Miapaca-2, 0.25 ug sDNA, Gemcitabine 0 nM) was −3.68 fold, the “Fold change in numbers of viable cells normalized relative to TC” value (Miapaca-2 cells [7]; Miapaca-2, 0.25 ug sDNA, Gemcitabine 1 nM) was −4.45 fold and the “Fold change in numbers of viable cells normalized relative to TC” value (Miapaca-2 cells [7]; Miapaca-2, 0.25 ug sDNA, Gemcitabine 10 nM) was −4.14 fold. For the same substance, the “Fold change in numbers of viable cells normalized relative to TC” value (Miapaca-2 cells [7]; Miapaca-2, 0.25 ug sDNA, Gemcitabine 30 nM) was −8.32 fold, the “Fold change in numbers of viable cells normalized relative to TC” value (Miapaca-2 cells [7]; Miapaca-2, 0.25 ug sDNA, Gemcitabine 100 nM) was −11.81 fold and the “Fold change in numbers of viable cells normalized relative to TC” value (Miapaca-2 cells [7]; Miapaca-2, 0.25 ug sDNA, Gemcitabine 1000 nM) was −11.31 fold. The “overall drop in the number of viable cells” value (Miapaca-2 cells [7]; Miapaca-2, either 0.1 or 0.25 μg AT-sDNA, 100 nm or greater gemcitabine) was about 10 fold.
